How the values were obtained:
DNA = assay: Identification of B; assay type: in vivo, PIRC rats; conditions: colon and liver tissues
Tissue disposition of B = assay type: in vivo, PIRC rats; conditions: for proportion of reactive metabolite among B(a)P metabolite concentrations: colon sample, 50 µg B(a)P/kg bw (Fig. 5D)
SULT1A1 [1] = assay: Western blot of SULT1A1 protein in liver; assay type: in vivo, PIRC rats
GST [2] = assay: Western blot of GST protein in liver; assay type: in vivo, PIRC rats
malondialdehyde (MDA) [3] = assay: Lipid peroxidation; assay type: in vivo, PIRC rats; conditions: among the treatment groups, except in the case of 100 µg/kg
GST [4] = assay: Western blot of GST protein in colon; assay type: in vivo, PIRC rats; conditions: 25 µg B(a)P/kg bw + RD, among all the groups
SULT1A1 [5] = assay: Western blot of SULT1A1 protein in colon; assay type: in vivo, PIRC rats
malondialdehyde (MDA) [6] = assay: Lipid peroxidation; assay type: in vivo, PIRC rats; conditions: B(a)P + WD
Caco-2 cells = conditions: Western diet; ref Faria et al. (2020); cited from earlier work

Oc1ccc2ccc3c4ccccc4cc4ccc1c2c43 [3-OH-B(a)P]
contribution of B(a)P metabolite to DNA adduct formation (DNA): not found to contribute to adduct formation

Oc1ccc2cc3ccc4cccc5ccc(c2c1)c3c45 [9-OH–B(a)P]
contribution of B(a)P metabolite to DNA adduct formation (DNA): not found to contribute to adduct formation

c1ccc2c(c1)cc1ccc3cccc4ccc2c1c34 [B(a)P, Benzo(a)pyrene]
B(a)P metabolite concentrations versus dose (Tissue disposition of B; plasma, liver, colon, 25, 50, 100 µg B(a)P/kg bw): dose-dependent
SULT1A1 protein expression in liver, WD compared to RD (SULT1A1 [1]; 25 µg B(a)P/kg bw + WD vs RD): increased expression
SULT1A1 protein expression in liver, RD or WD (SULT1A1 [1]; 50 and 100 µg B(a)P/kg bw + RD or WD): no difference
GST protein expression in liver, RD or WD (GST [2]; 100 µg B(a)P/kg bw, RD or WD): Very little difference
GST protein expression in liver, WD compared to counterparts (GST [2]; 25 and 50 µg B(a)P/kg bw + WD): significant increase
oxidative stress (MDA) in serum (malondialdehyde (MDA) [3]): no difference
GST protein expression in colon (GST [4]): largest increase
SULT1A1 protein expression in colon (SULT1A1 [5]; 25 µg B(a)P/kg bw + RD and WD): negligible
SULT1A1 protein expression in colon (SULT1A1 [5]; 50 µg B(a)P/kg bw, both diets): increased
SULT1A1 protein expression in colon, WD compared to RD (SULT1A1 [5]; 100 µg B(a)P/kg bw + WD vs RD counterpart): significantly increased
MDA production in colon (malondialdehyde (MDA) [6]): increased
bioaccessibility of B(a)P with WD (Caco-2 cells): higher bioaccessibility

O=C1C=Cc2ccc3c4c(ccc1c24)C(=O)c1ccccc1-3 [B(a)P-3,6-dione]
proportion of reactive metabolite among B(a)P metabolite concentrations (Tissue disposition of B): high
contribution of B(a)P metabolite to DNA adduct formation (DNA): not found to contribute to adduct formation

O=c1c2ccc3cccc4c(=O)cc(c5ccccc15)-c2c34 [B(a)P-6,12-dione]
proportion of reactive metabolite among B(a)P metabolite concentrations (Tissue disposition of B): high
contribution of B(a)P metabolite to DNA adduct formation (DNA): not found to contribute to adduct formation

O[C@@H]1[C@@H]2O[C@@H]2c2c(cc3ccc4cccc5ccc2c3c45)[C@H]1O [BPDE, 7β,8α-dihydroxy-9α,10α-epoxy-7,8,9,10-tetrahydrobenzo[a]pyrene]
contribution of B(a)P metabolite to DNA adduct formation (DNA): major adducts

— article PMC10943645 (Current Research in Toxicology, 2024)
